Results: patent US11066369B2, “N-(pyridin-2-yl)pyridine-sulfonamide derivatives and their use in the treatment of disease” (Novartis AG, priority 2016, dated 2021)
pEC50: −log10 of the molar value.

Legend:
[1] = biological target: T1, delF508-CFTR (Homo sapiens, UniProt P13569, DEL508-508); experiment: Measurement of delF508-CFTR functional activity in primary human bronchial epithelial cells (HBECs) using Multi-Transepithelial Clamp Circuit (MTECC-24) assay; type: cell-based; conditions: primary CF HBECs; for MTECC24 CFHBEC- Amax %: test compound added 24h before assay plus potentiator, relative to reference combination (2 μM corrector + 0.5 μM potentiator); for pEC50: test compound added 24h before assay, in the presence of potentiator, mean of at least two replicates, read-out: MTECC24 CFHBEC- EC50
T1 construct: functional activity of the CFTR channel (Chloride ion transport) in patient derived primary human bronchial epithelial cells; host or cells: patient-derived primary human bronchial epithelial cells (delF508-CFTR)
T1 sequence (P13569 with tags, fused parts or gaps DEL508-508): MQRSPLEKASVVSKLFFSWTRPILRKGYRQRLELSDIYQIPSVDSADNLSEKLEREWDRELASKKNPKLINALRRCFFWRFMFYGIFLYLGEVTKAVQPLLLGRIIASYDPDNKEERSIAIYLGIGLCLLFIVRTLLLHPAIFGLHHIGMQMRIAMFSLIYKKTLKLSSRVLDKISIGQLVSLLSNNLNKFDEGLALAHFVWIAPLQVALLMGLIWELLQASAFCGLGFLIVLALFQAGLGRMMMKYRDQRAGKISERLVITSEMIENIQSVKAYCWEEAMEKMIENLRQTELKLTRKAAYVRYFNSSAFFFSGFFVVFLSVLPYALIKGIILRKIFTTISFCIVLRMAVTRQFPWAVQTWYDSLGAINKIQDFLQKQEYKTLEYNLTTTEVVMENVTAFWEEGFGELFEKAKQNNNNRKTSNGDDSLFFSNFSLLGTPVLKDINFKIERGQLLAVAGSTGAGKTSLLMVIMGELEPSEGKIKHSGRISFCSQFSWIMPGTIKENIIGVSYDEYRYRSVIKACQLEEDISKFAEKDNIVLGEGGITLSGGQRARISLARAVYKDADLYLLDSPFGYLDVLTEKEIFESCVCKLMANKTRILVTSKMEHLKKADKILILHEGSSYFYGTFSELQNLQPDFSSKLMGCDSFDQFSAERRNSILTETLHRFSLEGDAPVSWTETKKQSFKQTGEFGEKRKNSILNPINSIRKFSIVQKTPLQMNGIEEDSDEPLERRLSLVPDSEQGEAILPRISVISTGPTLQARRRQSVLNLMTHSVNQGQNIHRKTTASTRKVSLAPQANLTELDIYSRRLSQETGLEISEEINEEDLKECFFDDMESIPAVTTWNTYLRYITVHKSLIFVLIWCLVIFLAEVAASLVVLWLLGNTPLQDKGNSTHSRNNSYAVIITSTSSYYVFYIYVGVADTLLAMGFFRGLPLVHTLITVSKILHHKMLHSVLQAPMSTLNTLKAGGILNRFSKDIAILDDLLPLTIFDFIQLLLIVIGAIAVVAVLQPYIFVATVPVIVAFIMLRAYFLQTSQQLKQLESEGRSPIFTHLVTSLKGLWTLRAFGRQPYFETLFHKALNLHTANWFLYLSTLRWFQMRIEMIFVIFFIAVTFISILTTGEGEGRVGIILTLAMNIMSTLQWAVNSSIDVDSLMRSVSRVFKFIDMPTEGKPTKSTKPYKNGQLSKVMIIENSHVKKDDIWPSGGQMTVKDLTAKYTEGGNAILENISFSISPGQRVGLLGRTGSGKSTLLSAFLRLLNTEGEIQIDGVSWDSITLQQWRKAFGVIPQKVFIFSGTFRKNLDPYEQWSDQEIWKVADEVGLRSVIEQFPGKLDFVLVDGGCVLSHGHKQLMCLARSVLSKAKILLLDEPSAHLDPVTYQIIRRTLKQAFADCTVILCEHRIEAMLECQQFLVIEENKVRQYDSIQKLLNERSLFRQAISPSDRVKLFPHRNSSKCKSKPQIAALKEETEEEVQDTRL
Summary of the method: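 Compound tested as 10-point, 1-in-3 concentration response (0.1% or 0.2% DMSO), 24 h basolateral pre-incubation, then re-added to both sides. MTECC-24 measured Ieq in ALI-differentiated primary delF508 bronchial cells after amiloride, forskolin activation, potentiator and INH-172 block; data normalized to DMSO baseline, EC50 fitted.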

[2] = biological target: T2, horseradish peroxidase (HRP) tagged delF508-CFTR (Homo sapiens, UniProt P13569, DEL508-508); experiment: Measurement of delF508-CFTR-HRP surface expression in CFBE41o- cells; type: cell-based; conditions: delF508-CFTR-HRP surface expression, CFBE41o- cells; for Emax: read-out: DelF508-CFTR-HRP Amax %; for pEC50: read-out: DelF508-CFTR-HRP EC50;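 on DelF508-CFTR-HRP Amax %: percent efficacy relative to reference corrector lumacaftor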
T2 construct: expressed in transfected cells
T2 sequence (P13569 with tags, fused parts or gaps DEL508-508): as above
Summary of the method: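 Surface-trafficked delF508-CFTR detected via extracellular HRP tag, read as luminescence from a membrane-impermeant substrate in CFBE41o- cells. Cells pre-induced 48h with 500 ng/mL doxycycline, then exposed 24h at 37° C to a 10-point, 3-fold dilution series from 10 μM (DMSO ≤0.5%). Triplicate dose-responses fitted logistically for EC50 after per-plate normalization; fold change versus reference compound.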

Compound | MTECC24 CFHBEC- Amax % [1] [%] | pEC50 [1] | Emax [2] [%] | pEC50 [2]
CCC1(C(=O)O)CCN(c2cccc(S(=O)(=O)Nc3ccc(Cl)c(-c4c(C)cccc4C)n3)n2)CC1 [Example 248, 1-(6-(N-(5-chloro-6-(2,6-dimethylphenyl)pyridin-2-yl)sulfamoyl)pyridin-2-yl)-4-ethylpiperidine-4-carboxylic Acid] | 68.2 | 8.18 | 568 | 5.79
CCOC(=O)C1(C)CCN(c2cccc(S(=O)(=O)Nc3ccc(Cl)c(-c4c(C)cccc4C)n3)n2)CC1 [Example 249, ethyl 1-(6-(N-(5-chloro-6-(2,6-dimethylphenyl)pyridin-2-yl)sulfamoyl)pyridin-2-yl)-4-methylpiperidine-4-carboxylate] | 79.6 | 8.17 |  | 5.82
Cc1cccc(C)c1-c1nc(NS(=O)(=O)c2cccc(N3CCC(C)(C(=O)O)CC3)n2)ccc1Cl [Example 250, 1-(6-(N-(5-chloro-6-(2,6-dimethylphenyl)pyridin-2-yl)sulfamoyl)pyridin-2-yl)-4-methylpiperidine-4-carboxylic Acid] | 59.4 | 7.96 | 744 | 5.74
CCOC(=O)C1(C)CCN(c2cccc(S(=O)(=O)Nc3ccc(Cl)c(-c4ccccc4C)n3)n2)CC1 [Example 254, ethyl 1-(6-(N-(5-chloro-6-(o-tolyl)pyridin-2-yl)sulfamoyl)pyridin-2-yl)-4-methylpiperidine-4-carboxylate] | 62.2 | 8.42 | 620 | 5.59
CCOC(=O)C1(C)CCN(c2cccc(S(=O)(=O)Nc3ccc(C(F)(F)F)c(-c4ccccc4C)n3)n2)CC1 [Example 259, ethyl 4-methyl-1-(6-{[6-(2-methylphenyl)-5-(trifluoromethyl)pyridin-2-yl]sulfamoyl}pyridin-2-yl)piperidine-4-carboxylate] | 66.7 | 8.72 | 801 | 5.81
Cc1c(F)cccc1-c1nc(NS(=O)(=O)c2cccc(N3CCC(C)(C(=O)O)CC3)n2)ccc1C(F)(F)F [Example 263, 1-(6-(N-(6-(3-fluoro-2-methylphenyl)-5-(trifluoromethyl)pyridin-2-yl)sulfamoyl)pyridin-2-yl)-4-methylpiperidine-4-carboxylic Acid] | 54.4 | 8.08 | 481 | 5.54
Cc1ccccc1-c1nc(NS(=O)(=O)c2cccc(N3CCC(C)(C(=O)O)CC3)n2)ccc1C(F)(F)F [Example 264, 4-methyl-1-(6-(N-(6-(o-tolyl)-5-(trifluoromethyl)pyridin-2-yl)sulfamoyl)pyridin-2-yl)piperidine-4-carboxylic Acid] | 67.2 | 7.93 | 448 | 5.58
Cc1cccc(C)c1-c1nc(NS(=O)(=O)c2cccc(N3CCC(C)(C(=O)O)CC3)n2)ccc1C(F)(F)F [Example 265, 1-(6-{[6-(2,6-dimethylphenyl)-5-(trifluoromethyl)pyridin-2-yl]sulfamoyl}pyridin-2-yl)-4-methylpiperidine-4-carboxylic Acid] | 53.1 | 7.87 | 879 | 5.74
COC(=O)C1(N)CCN(c2cccc(S(=O)(=O)Nc3ccc(Cl)c(-c4c(C)cccc4C)n3)n2)CC1 [Example 270, methyl 4-amino-1-(6-{[5-chloro-6-(2,6-dimethylphenyl)pyridin-2-yl]sulfamoyl}pyridin-2-yl)piperidine-4-carboxylate] | 69.5 | 7.02 | 561 | 5.71

Further lines, results first:

MTECC24 CFHBEC- Amax % [1] [%] | pEC50 [1] | Emax [2] [%] | pEC50 [2] | Compound
48.0 | 7.37 | 246 | 5.46 | CC1(C(=O)O)CCN(c2cccc(S(=O)(=O)Nc3ccc(Cl)c(-c4cccc(F)c4Cl)n3)n2)CC1 [Example 245, 1-(6-(N-(5-chloro-6-(2-chloro-3-fluorophenyl)pyridin-2-yl)sulfamoyl)pyridin-2-yl)-4-methylpiperidine-4-carboxylic Acid]
56.3 | 7.29 | 875 | 5.75 | COC(=O)C1CCN(c2cccc(S(=O)(=O)Nc3ccc(Cl)c(-c4c(C)cccc4C)n3)n2)CC1 [Example 246, methyl 1-(6-(N-(5-chloro-6-(2,6-dimethylphenyl)pyridin-2-yl)sulfamoyl)pyridin-2-yl)piperidine-4-carboxylate]
57.0 | 6.72 | 493 | 5.51 | Cc1cccc(C)c1-c1nc(NS(=O)(=O)c2cccc(N3CCC(C(=O)O)CC3)n2)ccc1Cl [Example 247, 1-(6-(N-(5-chloro-6-(2,6-dimethylphenyl)pyridin-2-yl)sulfamoyl)pyridin-2-yl)piperidine-4-carboxylic Acid]
61.2 | 8.49 | 894 | 5.84 | CCOC(=O)C1(C)CCN(c2cccc(S(=O)(=O)Nc3ccc(C(F)(F)F)c(-c4cc(F)ccc4C)n3)n2)CC1 [Example 251, ethyl 1-(6-(N-(6-(5-fluoro-2-methylphenyl)-5-(trifluoromethyl)pyridin-2-yl)sulfamoyl)pyridin-2-yl)-4-methylpiperidine-4-carboxylate]
67.1 | 7.56 | 203 | 5.64 | Cc1c(F)cccc1-c1nc(NS(=O)(=O)c2cccc(N3CCC(C)(C(=O)O)CC3)n2)ccc1Cl [Example 253, 1-(6-(N-(5-chloro-6-(3-fluoro-2-methylphenyl)pyridin-2-yl)sulfamoyl)pyridin-2-yl)-4-methylpiperidine-4-carboxylic Acid]
55.1 | 7.98 | 222 | 5.50 | Cc1ccccc1-c1nc(NS(=O)(=O)c2cccc(N3CCC(C)(C(=O)O)CC3)n2)ccc1Cl [Example 255, 1-(6-(N-(5-chloro-6-(o-tolyl)pyridin-2-yl)sulfamoyl)pyridin-2-yl)-4-methylpiperidine-4-carboxylic Acid]
52.6 | 8.54 | 662 | 5.56 | CCOC(=O)C1(C)CCN(c2cccc(S(=O)(=O)Nc3ccc(Cl)c(-c4cc(F)ccc4C)n3)n2)CC1 [Example 256, ethyl 1-(6-(N-(5-chloro-6-(5-fluoro-2-methylphenyl)pyridin-2-yl)sulfamoyl)pyridin-2-yl)-4-methylpiperidine-4-carboxylate]
63.0 | 7.66 | 198 | 5.87 | Cc1ccc(F)cc1-c1nc(NS(=O)(=O)c2cccc(N3CCC(C)(C(=O)O)CC3)n2)ccc1Cl [Example 257, 1-(6-{[5-chloro-6-(5-fluoro-2-methylphenyl)pyridin-2-yl]sulfamoyl}pyridin-2-yl)-4-methylpiperidine-4-carboxylic Acid]
81.2 | 7.85 | 628 | 5.64 | Cc1ccc(F)cc1-c1nc(NS(=O)(=O)c2cccc(N3CCC(C)(C(=O)O)CC3)n2)ccc1C(F)(F)F [Example 262, 1-(6-{[6-(5-fluoro-2-methylphenyl)-5-(trifluoromethyl)pyridin-2-yl]sulfamoyl}pyridin-2-yl)-4-methylpiperidine-4-carboxylic Acid]
66.6 | 8.06 | 837 | 5.96 | Cc1cccc(C)c1-c1nc(NS(=O)(=O)c2cccc(NC3CCOCC3)n2)ccc1Cl [Example 271, N-[5-chloro-6-(2,6-dimethylphenyl)pyridin-2-yl]-6-[(oxan-4-yl)amino]pyridine-2-sulfonamide]
66.4 | 7.98 | 806 | 5.64 | Cc1ccc(F)cc1-c1nc(NS(=O)(=O)c2cccc(N[C@@H]3CCOC[C@@H]3O)n2)ccc1Cl [Example 272, N-[5-chloro-6-(5-fluoro-2-methylphenyl)pyridin-2-yl]-6-{[(3R,4R)-3-hydroxyoxan-4-yl]amino}pyridine-2-sulfonamide]
70.9 | 8.19 |  | 5.86 | Cc1ccc(F)cc1-c1nc(NS(=O)(=O)c2cccc(N[C@@H]3CCOC[C@H]3O)n2)ccc1Cl [Example 273, N-[5-chloro-6-(5-fluoro-2-methylphenyl)pyridin-2-yl]-6-{[(3S,4R)-3-hydroxyoxan-4-yl]amino}pyridine-2-sulfonamide]
77.0 | 8.48 | 779 | 5.73 | Cc1ccccc1-c1nc(NS(=O)(=O)c2cccc(N[C@@H]3CCOC[C@H]3O)n2)ccc1C(F)(F)F [Example 274, 6-(((3S,4R)-3-hydroxytetrahydro-2H-pyran-4-yl)amino)-N-(6-(o-tolyl)-5-(trifluoromethyl)pyridin-2-yl)pyridine-2-sulfonamide]
